From patent US20190248888A1, “METHODS OF LOWERING BLOOD GLUCOSE LEVELS” (Regeneron Pharmaceuticals, Inc., priority 2016, published 2019)

How the values were obtained:
αTC1-6 glucagonoma cells = assay: αTC1-6 cell proliferation (CellTiter 96 Aqueous), WT and Slc38a5 KD; assay type: cell-based; conditions: 4 mM in culture medium, 5 days; for cell proliferation, Slc38a5 knock-down αTC1-6 cells: compared with wildtype cells
Excerpt: Slc38a5 KO αTC1 clones were generated using CRISPR-Cas9 techniques. Target sequences (sgRNAs) were designed using an online sgRNA design tool from DNA2.0 (DNA2.0). The sgRNAs were cloned into the pSpCas9-2A-GFP-Puro vector using BsmBl (NEB) and αTC1 cells were transfected with Lipofectamine 2000 according to the manufacturers' instructions (Life Technologies). Clones with deletion mutations were verified by PCR amplifications, TaqMan analysis and RNA sequencing. […] Both WT and Slc38a5 KD αTC1/6 cells were prepared in an assay medium (MEM from Gibco), supplemented with 5% fetal bovine serum (FBS), 10 mM HEPES, and 100 IU/ml penicillin and 100 μg/ml streptomycin) and seeded on 96-well plates at a density of ˜15,000 cells per well in 4-6 replicates. Selected amino acids were added to the final concentration of 4 mM. Cell proliferations were measured every day using the CellTiter 96 Aqueous Cell Proliferation Assay (Promega) according to the manufacturer's instructions. Briefly, 20 μl of assay reagent was added to each well and the cell plates were incubated in a tissue culture incubator for 2.5 hours. Absorbance was measured at 490 nm on a plate reader SpectraMax Plus (Molecular Devices). Values were corrected for background absorbance using the averages of the wells containing assay medium only and plotted in Prism (GraphPad).

C57BL/6 mice = assay: GCGR antibody with or without rapamycin in C57BL/6 mice: blood chemistry, islet cell mass; conditions: GCGR-antibody and rapamycin-treated mice
Description: C57BL/6 mice (males, 10 weeks of age, Taconic) were housed (5 mice per cage) in a controlled environment (12-h light/dark cycle, 22±1° C., 60-70% humidity) and fed ad libitum with standard chow (Purina Laboratory Rodent Diet 5001, LabDiet). Mice were assigned to study groups (n=10) based on baseline blood glucose levels. Mice were injected subcutaneously (sc) with GCGR antibody (3 mg/kg) or the control antibody (3 mg/kg) alone or in combination with rapamycin (10 mg/kg) or the vehicle. For the duration of the study, GCGR or control antibody was administered once weekly, whereas rapamycin or the vehicle was administered daily. Blood was collected from the tail for glucose measurements without fasting. Plasma samples were collected via submandibular bleeds at baseline and on day 21 after dosing for analysis of hormones and total amino acid levels. Seven days after the last antibody administration (day 21), mice were sacrificed, organs weighed and pancreata collected.
Pancreas α- and β-cell mass was measured as described elsewhere (Okamato et al., 2015, Endocrinology 156:2781-2794). α- and PP cell mass were determined using anti-somatostatin antibody (Sigma-Aldrich; #SAB4502861) and anti-pancreatic polypeptide antibody (Sigma-Aldrich; #SAB2500747). For quantifying Slc38a5 positive α-cells, pancreas sections were stained with human anti-glucagon and rabbit anti-Slc38a5 (Abcam; #ab72717) primary antibodies, and Alexa Fluor 488 labeled donkey anti-rabbit (Jackson ImmunoResearch; #711-545-152) and Alexa Fluor 594 donkey anti-human (Jackson ImmunoResearch; #709-585-149) secondary antibodies. For quantifying proliferating cells, Alexa Fluor 647 labeled anti-Ki67 (Abcam; #ab194724) was used in combination with anti-glucagon and anti-Slc38a5 antibodies. Slides were scanned using a Zeiss Axio Scan.Z1 slide scanner (Zeiss) and the images were analyzed using the Halo (Indica Labs).
Blood glucose was determined using ACCU-CHEK® Compact Plus (Roche Diagnostics). Plasma glucagon and insulin levels were determined using glucagon and mouse insulin ELISA (Mercodia). Plasma total amino acid levels were measured using L-Amino Acid Quantification Kit (Sigma-Aldrich).

SMILES	rate of cell proliferation, wildtype αTC1-6 cells (αTC1-6 glucagonoma cells)	cell proliferation, Slc38a5 knock-down αTC1-6 cells (αTC1-6 glucagonoma cells)	muscle mass (C57BL/6 mice)
C[C@H](N)C(=O)O [alanine]	significantly increased	to a much lesser extent	
CO[C@H]1C[C@@H]2CC[C@@H](C)[C@@](O)(O2)C(=O)C(=O)N2CCCC[C@H]2C(=O)O[C@H]([C@H](C)C[C@@H]2CC[C@@H](O)[C@H](OC)C2)CC(=O)[C@H](C)/C=C(\C)[C@@H](O)[C@@H](OC)C(=O)[C@H](C)C[C@H](C)/C=C/C=C/C=C/1C [rapamycin, reference compound]			small reduction
NC(=O)CC[C@H](N)C(=O)O [glutamine]	significantly increased	to a much lesser extent	
